Values of other authors, collected in patent publication US10281467B2, “Screening assays to identify compounds which modulate T1R associated taste modalities which eliminate false positives” (SENOMYX, INC., priority 2013, dated 2019).

Tested on: sweet taste
Details: more potent/sweet than sucrose

C=C(C)[C@@H]1CC=C(/C=N/O)CC1 [Perillartine]
potency/sweetness relative to sucrose: approximately 370 times
